Laboratory results as given in US20250084138A1, “POLYPEPTIDE HAVING EFFECT OF INHIBITING PROLIFERATION OF LEUKEMIA CELLS” (NANJING FENGRUI BIOTECHNOLOGY CO., LTD, priority 2019, published 2025).
Peptide text beside a SMILES is read from it. * marks the point of attachment. Myristoyl = CCCCCCCCCCCCCC(=O)*

What was measured:
various leukemia cells = experiment: Overall conclusion on proliferation of the three leukemia cell lines; format: cell-based; settings: K562, Jurkat, THP-1; positive correlation with dosage and times of administration
Procedure: (§1) The selected experimental cells were: • K562 cells of human chronic myeloid leukemia cell line (CML); • Jurkat cells of acute T lymphocyte leukemia cell line (T-ALL); • THP-1 cells of acute myeloid leukemia cell line (AML); • Baf-3 cells of normal mouse hematopoietic cells (mIL-3 dependent).
(§2) Firstly, the polypeptide of the present disclosure was co-incubated with 5*103 (marked as the third power of 10) leukemia tumor cells for 38 h, and the proliferation speed of the cells was detected by two methods of detecting proliferation of the cells (CCK-8) and cell counting, so as to observe the inhibitory effect of the polypeptide on the tumor cells.
(§3) Secondly, the polypeptide was co-incubated with the cells for 24 h, and then collected again, counted, and cultured with drug addition for 38 h, and then detected for the proliferation rate of the cells (CCK-8).
The leukemia subtypes represented by the aforementioned three leukemia cells have covered more than 70% of the number of leukemia patients.

[1] = test system: THP-1 cells of acute myeloid leukemia cell line (AML); experiment: Thp-1 cells co-incubated with the polypeptide, cell counting; format: cell-based
Procedure: as §1
(§4) This experiment was grouped into a normal control group, a polypeptide control group, and an experimental polypeptide group.
as §2, §3
(§5) Each group included one blank (Control), one control peptide (C-p), and three target peptides (P-t, taking an average as the result)

[2] = test system: K562 cells of human chronic myeloid leukemia cell line (CML); experiment: K562 cells co-incubated with the polypeptide, cell counting; format: cell-based
Procedure: as §1, §4, §2, §3, §5

[3] = test system: Baf-3 cells of normal mouse hematopoietic cells (mIL-3 dependent); settings: Baf-3 normal mouse hematopoietic cells
[4] = test system: Baf-3 cells of normal mouse hematopoietic cells (mIL-3 dependent); experiment: Baf-3 normal cells co-incubated with the polypeptide, cell counting; format: cell-based
Procedure: as §1, §4, §2, §3
Thirdly, we used normal mouse hematopoietic cells to carry out the same experiment as the above to observe the effect of the polypeptide on normal cells.
as §5

[5] = test system: Jurkat cells of acute T lymphocyte leukemia cell line (T-ALL); experiment: Jurkat cells co-incubated with the polypeptide, cell counting; format: cell-based
Procedure: as §1, §4, §2, §3, §5

CCCCCCCCCCCCCC(=O)N[C@@H](CCCCN)C(=O)N[C@@H](CCC(=O)O)C(=O)N[C@@H](CO)C(=O)N[C@@H](CCSC)C(=O)N[C@@H](CC(=O)O)C(=O)N[C@@H](C)C(=O)N[C@@H](CC(N)=O)C(=O)N[C@@H](CCCCN)C(=O)N1CCC[C@H]1C(=O)N[C@H](C(=O)N[C@@H](CCCCN)C(=O)N[C@@H](CC(N)=O)C(=O)N[C@@H](CC(C)C)C(=O)N1CCC[C@H]1C(=O)N[C@@H](CC(C)C)C(=O)N[C@@H](CCCCN)C(=O)N[C@@H](CCCCN)C(=O)N[C@H](C(=O)N1CCC[C@H]1C(=O)N[C@@H](CS)C(=O)N[C@@H](CCCCN)C(=O)N[C@H](C(=O)N[C@@H](CO)C(=O)N[C@@H](C)C(=O)N1CCC[C@H]1C(=O)N[C@@H](CO)C(=O)N[C@@H](CCC(N)=O)C(=O)N[C@@H](CO)C(=O)N[C@@H](Cc1ccccc1)C(=O)N[C@@H](Cc1ccccc1)C(=O)N[C@@H](C)C(=O)N[C@@H](CCCNC(=N)N)C(=O)N[C@@H](CC(=O)O)C(=O)N[C@@H](CC(N)=O)C(=O)N[C@H](C(=O)N[C@@H](C)C(=O)N[C@@H](CC(N)=O)C(=O)O)[C@@H](C)O)[C@@H](C)O)[C@@H](C)CC)[C@@H](C)O [P-t] (Myristoyl-KESMDANKPTKNLPLKKIPCKTSAPSQSFFARDNTAN-OH)
inhibition of the proliferation of various leukemia cells (various leukemia cells): obviously inhibit
Cell count ([1]; Thp-1, 10 uM, 38 h, first experiment): 80.56%
Cell count ([1]; Thp-1, 15 uM, 24 + 38 h, first experiment): 63.75%
Cell count ([1]; Thp-1, 15 uM, 24 + 38 h, second experiment): 68.22%
Cell count ([1]; Thp-1, 15 uM, 38 h, first experiment): 63.17 ± 2.50%
Cell count ([1]; Thp-1, 15 uM, 38 h, second experiment): 70.09%
Cell count ([2]; K562, 10 uM, 24 + 38 h, first experiment): 66.95%
Cell count ([2]; K562, 10 uM, 38 h, first experiment): 90.22 ± 28.17%
Cell count ([2]; K562, 15 uM, 24 + 38 h, second experiment): 70.09%
Cell count ([2]; K562, 15 uM, 38 h, first experiment): 69.55%
Cell count ([2]; K562, 15 uM, 38 h, second experiment): 80.00%
inhibitory effect on the proliferation of normal cells [3]: no inhibitory effect
Cell count ([4]; Baf-3, 10 uM, 24 + 38 h, first experiment): 100.11%
Cell count ([4]; Baf-3, 10 uM, 38 h, first experiment): 99.98%
Cell count ([4]; Baf-3, 15 uM, 24 + 38 h, second experiment): 100.83%
Cell count ([4]; Baf-3, 15 uM, 38 h, second experiment): 100.41%
Cell count ([5]; 10 uM, 38 h, first experiment): 106%
Cell count ([5]; 15 uM, 24 + 38 h, first experiment): 70.09 ± 18.75%
Cell count ([5]; 15 uM, 24 + 38 h, second experiment): 65.12%
Cell count ([5]; 15 uM, 38 h, first experiment): 69.55 ± 8.35 %
Cell count ([5]; 15 uM, 38 h, second experiment): 73.17%
